Measurements from patent US5068465A, “Pharmaceutically active 3-aryl-2-fluoro-1-olefins” (Merrell Dow Pharmaceuticals Inc., priority 1990, dated 1991).

How the values were obtained:
[1] = test system: DBH; details: J. Biol. Chem., 259, No. 11, 6925 (1984); cited from earlier work
[2] = test system: dopamine beta-hydroxylase (DBH); assay: time-dependent DBH inhibitory activity (tyramine conversion followed by oxygen uptake, polarographic electrode); type: biochemical; details: Concentration 12.9 mM; pH about 5; about 37° C.; ascorbate; tyramine substrate; 0.989 correlation
Description: The compounds of this invention are useful as dopamine beta-hydroxylase inhibitors for the treatment of, for instance, hypertension. The dopamine beta-hydroxylase (DBH) inhibitory properties of the compounds of this invention can readily be determined by standard and well known procedures. […] The test compound is added at the desired concentration, and the system is incubated. At different time intervals, tyramine, a substrate of DBH, is introduced to aliquots of the incubated enzyme solution and DBH activity is measured by the method of S. May, et al, J. Biol. Chem. 256, 2258 (1981), where the enzyme-activated conversion of tyramine is followed by monitoring oxygen uptake by means of a polarographic electrode and an oxygen monitor, to determine the level of DBH activity.

[3] = test system: monoamine oxidase; details: J. Med. Chem., 27, 9 (1984); cited from earlier work

Row | SMILES | mechanism-based inhibitors of DBH [1] | further results
1 | C=C(Br)Cc1ccc(O)cc1 [2-bromo-3-(4-hydroxyphenyl)-1-propene] | mechanism-based inhibitors of DBH | –
2 | C=C(F)Cc1ccc(O)cc1 [3-(4-Hydroxyphenyl)-2-Fluoro-1-Propene] | – | t 1/2: time required to reach 50% log activity [2]: 5 min.
3 | C=C(Cl)Cc1ccc(O)cc1 [2-chloro-3-(4-hydroxyphenyl)-1-propene] | mechanism-based inhibitors of DBH | –
4 | COc1ccc(C(=CF)CN)cc1OC [2-(3,4-dimethoxyphenyl)-3-fluoroallylamine] | – | active as a monoamine oxidase inhibitor [3]: active as a monoamine oxidase inhibitor
